# Source: patent US8895585B2, “Nicotinamide derivative or salt thereof” (FUJIFILM Corporation, priority 2010, dated 2014)
# Assays:
# [1] = biological target: T1, glutathione S-transferase (GST)-fused full-length human Syk protein (Homo sapiens, UniProt P43405); assay: Syk enzyme assay; assay type: biochemical; conditions: Syk enzyme assay, Test Example 1; read-out: IC50 of Syk-inhibitory activity
# T1 construct: (GST)-fused full-length human Syk protein; GST (glutathione S-transferase); purchased Carna Biosciences
# Summary of the method: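 IC50 values come from a time-resolved FRET readout (615 and 665 nm) of substrate phosphorylation, measured after an EDTA stop and 1 h antibody binding. The kinase reaction ran 40 min at room temperature with 27 μM ATP and 0.4 μM biotin-peptide, following a 15 min compound preincubation with baculovirus-made GST-full-length human Syk.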
# THP-1 cells = assay: TNFα generation assay; assay type: cell-based, human; conditions: Homo sapiens, THP-1, THP-1 cells; Table 22; read-out: IC50 in TNFα generation assay
# Summary of the method: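 Secreted TNFα in supernatant quantified by ELISA or AlphaLISA after 7 h culture on human IgG-coated wells (10 μg/ml coating). Cells were IFN-γ-differentiated THP-1 (10 ng/ml, 2 days), exposed to compound for 30 min at room temperature before plating.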
Compound,IC50 [1] [nM],IC50 (THP-1 cells) [nM]
COc1cccc(-c2cc(Nc3nc(NC4CCCCC4N)c(F)cc3C(N)=O)ccn2)c1F (centres unmarked) [Example 002-139],< 10,65 to 130
COc1ccc(-c2cc(Nc3nc(NC4CCCCC4N)c(F)cc3C(N)=O)ccn2)c(F)c1 (centres unmarked) [Example 002-140],< 10,130 to 200
COc1ccc(F)c(-c2cc(Nc3nc(NC4CCCCC4N)c(F)cc3C(N)=O)ccn2)c1 (centres unmarked) [Example 002-141],< 10,65 to 130
NC(=O)c1cc(F)c(NC2CCCCC2N)nc1Nc1ccc(C2CC2)nc1 (centres unmarked) [Example 002-142],< 10,130 to 200
NC(=O)c1cc(F)c(NC2CCCCC2N)nc1Nc1ccnc(-c2cccc(F)c2F)c1 (centres unmarked) [Example 002-144],< 10,130 to 200
COc1ncc(Nc2nc(NC3CCCCC3N)c(F)cc2C(N)=O)cc1-n1nccn1 (centres unmarked) [Example 002-155],10 to 50,65 to 130
NC(=O)c1cc(F)c(NC2CCCCC2N)nc1Nc1ccc(-n2cccn2)nc1 (centres unmarked) [Example 002-160],10 to 50,130 to 200
Cc1nccc(Nc2nc(NC3CCCCC3N)c(F)cc2C(N)=O)c1F (centres unmarked) [Example 002-163],10 to 50,130 to 200
NC(=O)c1cc(F)c(NC2CCCCC2N)nc1Nc1ccnc(N2CCOCC2)c1F (centres unmarked) [Example 002-165],10 to 50,65 to 130
NC(=O)c1cc(F)c(NC2CCCCC2N)nc1Nc1cnnc(-c2ccccc2)c1 (centres unmarked) [Example 002-169],10 to 50,130 to 200
COc1ccc(-c2cncc(Nc3nc(NC4CCCCC4N)c(F)cc3C(N)=O)c2)cc1OC (centres unmarked) [Example 002-170],10 to 50,65 to 130
NC(=O)c1cc(F)c(NC2CCCCC2N)nc1Nc1cncc(-c2ccc([N+](=O)[O-])cc2)c1 (centres unmarked) [Example 002-172],10 to 50,130 to 200
N#Cc1ccc(-c2cncc(Nc3nc(NC4CCCCC4N)c(F)cc3C(N)=O)c2)cc1 (centres unmarked) [Example 002-173],10 to 50,130 to 200
NC(=O)c1cc(F)c(NC2CCCCC2N)nc1Nc1cncc(-c2ccc3c(c2)OCO3)c1 (centres unmarked) [Example 002-175],< 10,< 65
CCn1ncc2ccc(Nc3nc(NC4CCCCC4N)c(F)cc3C(N)=O)cc21 (centres unmarked) [Example 002-185],< 10,< 65
CCn1ncc2c(Nc3nc(NC4CCCCC4N)c(F)cc3C(N)=O)cccc21 (centres unmarked) [Example 002-186],< 10,65 to 130
NC(=O)c1cc(F)c(NC2CCCCC2N)nc1Nc1ccc2c(cnn2CC(F)F)c1 (centres unmarked) [Example 002-187],< 10,< 65
NC(=O)c1cc(F)c(NC2CCCCC2N)nc1Nc1ccc2cnn(CC(F)F)c2c1 (centres unmarked) [Example 002-188],< 10,65 to 130
NC(=O)c1cc(F)c(NC2CCCCC2N)nc1Nc1cncc(-c2ccc3cccnc3c2)c1 (centres unmarked) [Example 002-189],< 10,65 to 130
NC(=O)c1cc(F)c(NC2CCCCC2N)nc1Nc1cncc(-c2ccc3cnccc3c2)c1 (centres unmarked) [Example 002-190],< 10,130 to 200
NC(=O)c1cc(F)c(NC2CCCCC2N)nc1Nc1cncc(-c2ccc3ccncc3c2)c1 (centres unmarked) [Example 002-191],< 10,65 to 130
NC(=O)c1cc(F)c(NC2CCCCC2N)nc1Nc1ccnc(-c2ccc3cnccc3c2)c1 (centres unmarked) [Example 002-193],< 10,130 to 200
Cn1nc(F)c2cc(Nc3nc(NC4CCCCC4N)c(F)cc3C(N)=O)ccc21 (centres unmarked) [Example 002-196],< 10,65 to 130
CCn1nc(F)c2cc(Nc3nc(NC4CCCCC4N)c(F)cc3C(N)=O)ccc21 (centres unmarked) [Example 002-197],< 10,130 to 200
Cn1nc(F)c2ccc(Nc3nc(NC4CCCCC4N)c(F)cc3C(N)=O)cc21 (centres unmarked) [Example 002-198],< 10,65 to 130
CCn1nc(F)c2ccc(Nc3nc(NC4CCCCC4N)c(F)cc3C(N)=O)cc21 (centres unmarked) [Example 002-199],< 10,130 to 200

Compound,IC50 [1] [nM],IC50 (THP-1 cells) [nM]
NC(=O)c1cc(F)c(NC2CCCCC2N)nc1Nc1ccc2c(cnn2CCF)c1 (centres unmarked) [Example 002-200],< 10,< 65
NC(=O)c1cc(F)c(NC2CCCCC2N)nc1Nc1ccc2cnn(CCF)c2c1 (centres unmarked) [Example 002-201],< 10,65 to 130
NC(=O)c1cc(F)c(NC2CCCCC2N)nc1Nc1ccc2c(c1)c(F)nn2CCF (centres unmarked) [Example 002-204],< 10,65 to 130
NC(=O)c1cc(F)c(NC2CCCCC2N)nc1Nc1ccc2c(F)nn(CCF)c2c1 (centres unmarked) [Example 002-205],< 10,65 to 130
Cc1nn(C)c2ccc(Nc3nc(NC4CCCCC4N)c(F)cc3C(N)=O)cc12 (centres unmarked) [Example 002-206],< 10,< 65
CCn1nc(C)c2cc(Nc3nc(NC4CCCCC4N)c(F)cc3C(N)=O)ccc21 (centres unmarked) [Example 002-207],< 10,65 to 130
COCCn1nc(C)c2cc(Nc3nc(NC4CCCCC4N)c(F)cc3C(N)=O)ccc21 (centres unmarked) [Example 002-208],< 10,65 to 130
Cc1nn(CCF)c2ccc(Nc3nc(NC4CCCCC4N)c(F)cc3C(N)=O)cc12 (centres unmarked) [Example 002-209],< 10,65 to 130
Cc1nn(CC(F)F)c2ccc(Nc3nc(NC4CCCCC4N)c(F)cc3C(N)=O)cc12 (centres unmarked) [Example 002-210],< 10,65 to 130
NC(=O)c1cc(F)c(N[C@@H]2CCCC[C@@H]2N)nc1Nc1cnc2cccnc2c1 [Example 004-002],10 to 50,< 65
NC(=O)c1cc(F)c(N[C@@H]2CCCC[C@@H]2N)nc1Nc1cnc2ccncc2c1 [Example 004-003],10 to 50,< 65
NC(=O)c1cc(F)c(N[C@@H]2CCCC[C@@H]2N)nc1Nc1cncc2cccnc12 [Example 004-004],10 to 50,65 to 130
NC(=O)c1cc(F)c(N[C@@H]2CCCC[C@@H]2N)nc1Nc1cnc2c([N+](=O)[O-])cccc2c1 [Example 004-005],< 10,65 to 130
Cn1ccc2c(Nc3nc(N[C@@H]4CCCC[C@@H]4N)c(F)cc3C(N)=O)cncc21 [Example 004-006],< 10,65 to 130
NC(=O)c1cc(F)c(N[C@@H]2CCCC[C@@H]2N)nc1Nc1cncc2c1ccn2CCN1CCCC1 [Example 004-007],< 10,65 to 130
NC(=O)c1cc(F)c(N[C@@H]2CCCC[C@@H]2N)nc1Nc1cncc(C(=O)Nc2ccccc2)c1 [Example 004-011],10 to 50,130 to 200
Cn1ccc2cc(Nc3nc(N[C@@H]4CCCC[C@@H]4N)c(F)cc3C(N)=O)cnc21 [Example 004-012],< 10,< 65
NC(=O)c1cc(F)c(N[C@@H]2CCCC[C@@H]2N)nc1Nc1ccc2nc(-c3ccccc3)cn2c1 [Example 004-014],< 10,130 to 200
COC(=O)c1cncc(Nc2nc(N[C@@H]3CCCC[C@@H]3N)c(F)cc2C(N)=O)c1 [Example 004-016],< 10,65 to 130
Cc1cc(Nc2nc(N[C@@H]3CCCC[C@@H]3N)c(F)cc2C(N)=O)ccn1 [Example 004-018],10 to 50,65 to 130
Cc1ccncc1Nc1nc(N[C@@H]2CCCC[C@@H]2N)c(F)cc1C(N)=O [Example 004-019],10 to 50,130 to 200
NC(=O)c1cc(F)c(N[C@@H]2CCCC[C@@H]2N)nc1Nc1cncc2c1cnn2-c1ccccc1 [Example 004-020],< 10,130 to 200
NC(=O)c1cc(F)c(N[C@@H]2CCCC[C@@H]2N)nc1Nc1cnc2c(ccn2CCN2CCCC2)c1 [Example 004-022],10 to 50,65 to 130
NC(=O)c1cc(F)c(N[C@@H]2CCCC[C@@H]2N)nc1Nc1cnc2c(ccn2CCN2CCOCC2)c1 [Example 004-024],50 to 100,130 to 200
NC(=O)c1cc(F)c(N[C@@H]2CCCC[C@@H]2N)nc1Nc1ccnc2c1ccn2CCN1CCOCC1 [Example 004-025],< 10,< 65
NC(=O)c1cc(F)c(N[C@@H]2CCCC[C@@H]2N)nc1Nc1cnc2ncsc2c1 [Example 004-026],< 10,< 65
